Source: ChEMBL document CHEMBL1145395, “De novo design of selective antibiotic peptides by incorporation of unnatural amino acids” (J Med Chem, 2007)
Values after ≈ are worked out from the molar mass of the structure shown. Active and inactive are the calls of the source. The calls are words filed in the database; no cut-off is given here. Non-standard residues stand in square brackets, D forms with d. Residues, ends and D or L forms follow the SMILES beside them. ξ: configuration not given here. Pro(3ξ,4ξ-(CH2)4) = O=C(O)[C@H]1NCC2CCCCC21; Oic = O=C(O)[C@@H]1C[C@@H]2CCCC[C@@H]2N1; Tic = O=C(O)[C@@H]1Cc2ccccc2CN1; ξTic = O=C(O)C1Cc2ccccc2CN1; Ahx = NCCCCCC(=O)O; GABA = NCCCC(=O)O

Assays:
Mycobacterium = experiment: Antibacterial activity against Mycobacterium ranae ATCC 110; assay type: functional
Staphylococcus aureus = experiment: Antibacterial activity against methicillin/gentamicin/tetracycline resistant Staphylococcus aureus ATCC 33592; assay type: functional
[1] = Toxicity to mouse RBC assessed as hemolytic activity at 25 uM; assay type: cell-based, Erythrocyte; conditions: red blood cells, read-out: Activity
[2] = Toxicity to mouse RBC assessed as hemolytic activity at 100 uM; assay type: cell-based, Erythrocyte; conditions: red blood cells, read-out: Activity
Salmonella typhimurium = experiment: Antibacterial activity against Salmonella Typhimurium ATCC 13311; assay type: functional, Salmonella enterica subsp. enterica serovar Typhimurium; conditions: Salmonella enterica
Bacillus subtilis = experiment: Antibacterial activity against Bacillus subtilis ATCC 43223; assay type: functional
Mus musculus [3] = experiment: Acute toxicity in mouse at 25 mg/kg, ip after 6 days; assay type: organism-based; parameters: dose 25 mg/kg, route intraperitoneal; conditions: in vivo, 144 h
Mus musculus [4] = experiment: Acute toxicity in mouse at 5 mg/kg, ip after 6 days; assay type: organism-based; parameters: dose 5 mg/kg, route intraperitoneal; conditions: in vivo, 144 h
Mus musculus [5] = experiment: Acute toxicity in mouse at 1 mg/kg, ip after 6 days; assay type: organism-based; parameters: dose 1 mg/kg, route intraperitoneal; conditions: in vivo, 144 h

SMILES	MIC (Mycobacterium)	Activity (Staphylococcus aureus)	hemolysis at 25 µM [1]	hemolysis at 100 µM [2]	MIC (Salmonella typhimurium)	MIC (Bacillus subtilis)	Activity (Mus musculus [3])	MIC (Staphylococcus aureus)	Activity (Mus musculus [4])	Activity (Mus musculus [5])
CC(=O)NCC(=O)N[C@@H](Cc1ccccc1)C(=O)N1Cc2ccccc2C[C@H]1C(=O)NCC(=O)N[C@@H](CCCCN)C(=O)N1Cc2ccccc2C[C@H]1C(=O)NCC(=O)N[C@@H](Cc1ccccc1)C(=O)N1Cc2ccccc2C[C@H]1C(=O)NCC(=O)N[C@H](CCCCN)C(=O)N1Cc2ccccc2C[C@H]1C(=O)N[C@@H](CCCCN)C(=O)N[C@@H](CCCCN)C(=O)N[C@@H](CCCCN)C(=O)N[C@@H](CCCCN)C(N)=O	30 µM (≈ 59.6 µg/mL)	inactive	4.9%	6%	100 µM (≈ 199 µg/mL)	10 µM (≈ 19.9 µg/mL)	–	–	–	–
CC(=O)N[C@@H](Cc1ccccc1)C(=O)N1Cc2ccccc2C[C@H]1C(=O)N1CC2CCCCC2[C@H]1C(=O)N[C@@H](CCCCN)C(=O)N1Cc2ccccc2C[C@H]1C(=O)N1CC2CCCCC2[C@H]1C(=O)N[C@@H](Cc1ccccc1)C(=O)N1Cc2ccccc2C[C@H]1C(=O)N1CC2CCCCC2[C@H]1C(=O)N[C@@H](CCCCN)C(=O)N1Cc2ccccc2C[C@H]1C(=O)N[C@@H](CCCCN)C(=O)N[C@@H](CCCCN)C(=O)N[C@@H](CCCCN)C(=O)N[C@@H](CCCCN)C(N)=O (some centres undefined) (Ac-F[Tic][Pro(3ξ,4ξ-(CH2)4)]K[Tic][Pro(3ξ,4ξ-(CH2)4)]F[Tic][Pro(3ξ,4ξ-(CH2)4)]K[Tic]KKKK-NH2)	30 µM (≈ 66.4 µg/mL)	–	50%	86.8%	10 µM (≈ 22.1 µg/mL)	1 µM (≈ 2.21 µg/mL)	Non-toxic	3 µM (≈ 6.64 µg/mL)	Non-toxic	Non-toxic
CC(=O)N[C@@H](Cc1ccccc1)C(=O)N1Cc2ccccc2C[C@H]1C(=O)N1CC2CCCCC2[C@H]1C(=O)N[C@@H](CCCCN)C(=O)N1Cc2ccccc2C[C@H]1C(=O)N1CC2CCCCC2[C@H]1C(=O)N[C@@H](Cc1ccccc1)C(=O)N1Cc2ccccc2C[C@H]1C(=O)N1CC2CCCCC2[C@H]1C(=O)N[C@@H](CCCCN)C(=O)N1Cc2ccccc2C[C@H]1C(=O)N[C@@H](CCCCN)C(=O)N[C@@H](CCCCN)C(=O)N[C@@H](CCCCN)C(=O)N[C@@H](CCCCN)C(=O)N[C@@H](CCCCN)C(=O)N[C@@H](CCCCN)C(N)=O (some centres undefined) (Ac-F[Tic][Pro(3ξ,4ξ-(CH2)4)]K[Tic][Pro(3ξ,4ξ-(CH2)4)]F[Tic][Pro(3ξ,4ξ-(CH2)4)]K[Tic]KKKKKK-NH2)	3 µM (≈ 7.41 µg/mL)	–	33.5%	41.3%	10 µM (≈ 24.7 µg/mL)	1 µM (≈ 2.47 µg/mL)	–	3 µM (≈ 7.41 µg/mL)	–	–
CC(=O)NCC(=O)N[C@@H](Cc1ccccc1)C(=O)N1CC2CCCCC2[C@H]1C(=O)NCC(=O)N[C@@H](CCCCN)C(=O)N1CC2CCCCC2[C@H]1C(=O)NCC(=O)N[C@@H](Cc1ccccc1)C(=O)N1CC2CCCCC2[C@H]1C(=O)NCC(=O)N[C@@H](CCCCN)C(=O)N[C@@H](CCCCN)C(=O)N[C@@H](CCCCN)C(=O)N[C@@H](CCCCN)C(=O)N[C@@H](CCCCN)C(N)=O (some centres undefined) (Ac-GF[Pro(3ξ,4ξ-(CH2)4)]GK[Pro(3ξ,4ξ-(CH2)4)]GF[Pro(3ξ,4ξ-(CH2)4)]GKKKKK-NH2)	–	–	3.2%	5.9%	–	–	–	–	–	–
CC(=O)NCC(=O)N[C@@H](Cc1ccccc1)C(=O)N1Cc2ccccc2C[C@H]1C(=O)NCC(=O)NCC(=O)N[C@@H](CCCCN)C(=O)N1Cc2ccccc2C[C@H]1C(=O)NCC(=O)NCC(=O)N[C@@H](Cc1ccccc1)C(=O)N1Cc2ccccc2C[C@H]1C(=O)NCC(=O)NCC(=O)N[C@@H](CCCCN)C(=O)N1Cc2ccccc2C[C@H]1C(=O)N[C@@H](CCCCN)C(=O)N[C@@H](CCCCN)C(=O)N[C@@H](CCCCN)C(=O)N[C@@H](CCCCN)C(N)=O (Ac-GF[Tic]GGK[Tic]GGF[Tic]GGK[Tic]KKKK-NH2)	30 µM (≈ 64.8 µg/mL)	inactive	3.8%	5.7%	100 µM (≈ 216 µg/mL)	10 µM (≈ 21.6 µg/mL)	–	–	–	–
CC(=O)NCC(=O)N[C@@H](Cc1ccccc1)C(=O)N1Cc2ccccc2C[C@H]1C(=O)N1CC2CCCCC2[C@H]1C(=O)NCC(=O)N[C@@H](CCCCN)C(=O)N1Cc2ccccc2C[C@H]1C(=O)N1CC2CCCCC2[C@H]1C(=O)NCC(=O)N[C@@H](Cc1ccccc1)C(=O)N1Cc2ccccc2C[C@H]1C(=O)N1CC2CCCCC2[C@H]1C(=O)NCC(=O)N[C@@H](CCCCN)C(=O)N1Cc2ccccc2C[C@H]1C(=O)N[C@@H](CCCCN)C(=O)N[C@@H](CCCCN)C(=O)N[C@@H](CCCCN)C(=O)N[C@@H](CCCCN)C(=O)N[C@@H](CCCCN)C(N)=O (some centres undefined) (Ac-GF[Tic][Pro(3ξ,4ξ-(CH2)4)]GK[Tic][Pro(3ξ,4ξ-(CH2)4)]GF[Tic][Pro(3ξ,4ξ-(CH2)4)]GK[Tic]KKKKK-NH2)	–	–	18.9%	24.9%	–	–	–	–	–	–
CC(=O)NCC(=O)N1Cc2ccccc2C[C@H]1C(=O)N1CC2CCCCC2[C@H]1C(=O)N[C@@H](CCCCN)C(=O)N1Cc2ccccc2C[C@H]1C(=O)N1CC2CCCCC2[C@H]1C(=O)NCC(=O)N1Cc2ccccc2CC1C(=O)N1CC2CCCCC2[C@H]1C(=O)N[C@@H](CCCCN)C(=O)N1Cc2ccccc2C[C@H]1C(=O)N[C@@H](CCCCN)C(=O)N[C@@H](CCCCN)C(=O)N[C@@H](CCCCN)C(=O)N[C@@H](CCCCN)C(N)=O (some centres undefined) (Ac-G[Tic][Pro(3ξ,4ξ-(CH2)4)]K[Tic][Pro(3ξ,4ξ-(CH2)4)]G[ξTic][Pro(3ξ,4ξ-(CH2)4)]K[Tic]KKKK-NH2)	3 µM (≈ 6.1 µg/mL)	–	9.2%	26.7%	10 µM (≈ 20.3 µg/mL)	1 µM (≈ 2.03 µg/mL)	Non-toxic	10 µM (≈ 20.3 µg/mL)	Non-toxic	Non-toxic
CC(=O)NCCCCCC(=O)N[C@@H](Cc1ccccc1)C(=O)N1Cc2ccccc2C[C@H]1C(=O)N1CC2CCCCC2[C@H]1C(=O)NCCCCCC(=O)N[C@@H](CCCCN)C(=O)N1Cc2ccccc2C[C@H]1C(=O)N1CC2CCCCC2[C@H]1C(=O)NCCCCCC(=O)N[C@@H](Cc1ccccc1)C(=O)N1Cc2ccccc2C[C@H]1C(=O)N1CC2CCCCC2[C@H]1C(=O)NCCCCCC(=O)N[C@@H](CCCCN)C(=O)N1Cc2ccccc2C[C@H]1C(=O)N[C@@H](CCCCN)C(=O)N[C@@H](CCCCN)C(=O)N[C@@H](CCCCN)C(=O)N[C@@H](CCCCN)C(N)=O (some centres undefined) (Ac-[Ahx]F[Tic][Pro(3ξ,4ξ-(CH2)4)][Ahx]K[Tic][Pro(3ξ,4ξ-(CH2)4)][Ahx]F[Tic][Pro(3ξ,4ξ-(CH2)4)][Ahx]K[Tic]KKKK-NH2)	3 µM (≈ 8 µg/mL)	–	26.6%	44.7%	10 µM (≈ 26.7 µg/mL)	1 µM (≈ 2.67 µg/mL)	–	10 µM (≈ 26.7 µg/mL)	–	–
CC(=O)NCCCC(=O)N[C@@H](Cc1ccccc1)C(=O)N1Cc2ccccc2C[C@H]1C(=O)N1[C@H](C(=O)NCCCC(=O)N[C@@H](CCCCN)C(=O)N2Cc3ccccc3C[C@H]2C(=O)N2[C@H](C(=O)NCCCC(=O)N[C@@H](Cc3ccccc3)C(=O)N3Cc4ccccc4C[C@H]3C(=O)N3[C@H](C(=O)NCCCC(=O)N[C@@H](CCCCN)C(=O)N4Cc5ccccc5C[C@H]4C(=O)N[C@@H](CCCCN)C(=O)N[C@@H](CCCCN)C(=O)N[C@@H](CCCCN)C(=O)N[C@@H](CCCCN)C(N)=O)C[C@@H]4CCCC[C@@H]43)C[C@@H]3CCCC[C@@H]32)C[C@@H]2CCCC[C@@H]21 (Ac-[GABA]F[Tic][Oic][GABA]K[Tic][Oic][GABA]F[Tic][Oic][GABA]K[Tic]KKKK-NH2)	–	–	1%	10.8%	–	–	Non-toxic	–	Non-toxic	Non-toxic
CC(=O)NCCCC(=O)N[C@@H](Cc1ccccc1)C(=O)N1Cc2ccccc2C[C@H]1C(=O)N1[C@H](C(=O)NCCCC(=O)N[C@@H](CCCCN)C(=O)N2Cc3ccccc3C[C@H]2C(=O)N2[C@H](C(=O)NCCCC(=O)N[C@@H](Cc3ccccc3)C(=O)N3Cc4ccccc4C[C@H]3C(=O)N3[C@H](C(=O)NCCCC(=O)N[C@@H](CCCCN)C(=O)N4Cc5ccccc5C[C@H]4C(=O)N[C@@H](CCCCN)C(=O)N[C@@H](CCCCN)C(=O)N[C@@H](CCCCN)C(=O)N[C@@H](CCCCN)C(=O)N[C@@H](CCCCN)C(N)=O)C[C@@H]4CCCC[C@@H]43)C[C@@H]3CCCC[C@@H]32)C[C@@H]2CCCC[C@@H]21 (Ac-[GABA]F[Tic][Oic][GABA]K[Tic][Oic][GABA]F[Tic][Oic][GABA]K[Tic]KKKKK-NH2)	–	–	10.5%	29.7%	–	–	–	–	–	–
NCCCC[C@H](NC(=O)[C@H](CCCCN)NC(=O)[C@H](CCCCN)NC(=O)[C@H](CCCCN)NC(=O)[C@@H]1Cc2ccccc2CN1C(=O)[C@H](CCCCN)NC(=O)CNC(=O)[C@@H]1C[C@@H]2CCCC[C@@H]2N1C(=O)[C@@H]1Cc2ccccc2CN1C(=O)[C@H](Cc1ccccc1)NC(=O)CNC(=O)[C@@H]1C[C@@H]2CCCC[C@@H]2N1C(=O)[C@@H]1Cc2ccccc2CN1C(=O)[C@H](CCCCN)NC(=O)CNC(=O)[C@@H]1C[C@@H]2CCCC[C@@H]2N1C(=O)[C@@H]1Cc2ccccc2CN1C(=O)[C@H](Cc1ccccc1)NC(=O)CN)C(N)=O (H-GF[Tic][Oic]GK[Tic][Oic]GF[Tic][Oic]GK[Tic]KKKK-NH2)	–	–	14.3%	33.4%	–	–	–	–	–	–
CC(C)C[C@H](NC(=O)[C@@H](N)CCCCN)C(=O)N1Cc2ccccc2C[C@H]1C(=O)N1CC2CCCCC2[C@H]1C(=O)NCC(=O)N[C@@H](CCCCN)C(=O)N1Cc2ccccc2C[C@H]1C(=O)N1CC2CCCCC2[C@H]1C(=O)NCC(=O)N[C@@H](Cc1ccccc1)C(=O)N1Cc2ccccc2C[C@H]1C(=O)N1CC2CCCCC2[C@H]1C(=O)NCC(=O)N[C@@H](CCCCN)C(=O)N1Cc2ccccc2C[C@H]1C(=O)N[C@@H](CCCCN)C(=O)N[C@@H](CCCCN)C(=O)N[C@@H](CCCCN)C(=O)N[C@@H](CCCCN)C(N)=O (some centres undefined) (H-KL[Tic][Pro(3ξ,4ξ-(CH2)4)]GK[Tic][Pro(3ξ,4ξ-(CH2)4)]GF[Tic][Pro(3ξ,4ξ-(CH2)4)]GK[Tic]KKKK-NH2)	3 µM (≈ 7.31 µg/mL)	–	24.9%	43.6%	3 µM (≈ 7.31 µg/mL)	1 µM (≈ 2.44 µg/mL)	Non-toxic	30 µM (≈ 73.1 µg/mL)	Non-toxic	Non-toxic
